One compound from PMC4992173, “Divergent synthesis and identification of the cellular targets of deoxyelephantopins” (Nature Communications, 2016) can be followed below.

The assay concerns proteins enriched from MCF7 cells by probe 24c. Put plainly: SILAC competitive profiling with probe 24c in MCF7 lysates, proteome-wide. To be noted: 20 μM deoxyelephantopin, 10 μM 24c, SILAC ratio<0.30. It counts as binding, human. The text has this: In our efforts to determine the direct molecular targets of deoxyelephantopin we first performed a gel-based competitive in situ proteomic profiling assay[41] […] While the greater conformational flexibility of probe 24c could potentially lead to more promiscuous target engagement relatively to deoxyelephantopin, it was favoured based on the fact that an alkyne moiety appended to the rigid scaffold of deoxyelephantopin may hinder some of its interactions. MCF7 cells were pretreated with various concentrations of deoxyelephantopin for 4 h, harvested, lysed and the lysates were treated with the fluorogenic probe 24c-Cy3 (10 μM; Supplementary Fig. 10). […] Furthermore, cells were pretreated with 20 μM concentration of deoxyelephantopin or 24c and the proteomic profiles were compared (Fig. 6b, Supplementary Fig. 11). Multiple bands were detected that were equally competed by both DEP and 24c, thus again confirming that 24c can be used as an acceptable clickable analogue of deoxyelephantopin in pulldown assays. Having established the optimal labelling conditions by SDS–PAGE, we next carried out a mass spectrometry-based competitive profiling assay[42] coupled with the method of stable isotope labelling of amino acids in culture (SILAC)[43]. […]
visualization were performed as described above. Images were quantified with ImageJ and kinetics values were calculated using GraphPad Prism (V6.03). […]

Structures are written as SMILES.

Turning to `C=C(C)C(=O)O[C@H]1CC2=C[C@@H](C/C(C)=C/[C@H]3OC(=O)C(=C)[C@H]13)OC2=O` [deoxyelephantopin], the “competition of probe 24c labelling (11 proteins)” value is recorded as > 70%.
